From patent US20190284136A1, “INDOLINE DERIVATIVES” (ViiV HEALTHCARE UK LIMITED, priority 2016, published 2019)

Test system: HIV
Experiment: Table 1 IC50 of the examples (assay method not given; patent concerns inhibiting HIV replication)
Type: cell-based
Conditions: Human immunodeficiency virus 1

SMILES | IC50 [nM]
COc1ncccc1C(=O)N1CCc2c1cc(C)c([C@H](OC(C)(C)C)C(=O)O)c2-c1cc(F)c2c(c1C)CCCO2 (atropisomer, axis not shown) [Example 90, (S)-2-(tert-Butoxy)-2-((R)-4-(8-fluoro-5-methylchroman-6-yl)-1-(2-methoxynicotinoyl)-6-methylindolin-5-yl)acetic acid] | 5
Cc1cc2c(c(-c3cc(F)c4c(c3C)CCCO4)c1[C@H](OC(C)(C)C)C(=O)O)CCN2C(=O)c1ccncc1F (atropisomer, axis not shown) [Example 91, (S)-2-(tert-Butoxy)-2-((R)-4-(8-fluoro-5-methylchroman-6-yl)-1-(3-fluoroisonicotinoyl)-6-methylindolin-5-yl)acetic acid] | 156
Cc1cc2c(c(-c3cc(F)c4c(c3C)CCCO4)c1[C@H](OC(C)(C)C)C(=O)O)CCN2C(=O)c1cccc(Cl)c1Cl (atropisomer, axis not shown) [Example 92, (S)-2-(tert-Butoxy)-2-((R)-1-(2,3-dichlorobenzoyl)-4-(8-fluoro-5-methylchroman-6-yl)-6-methylindolin-5-yl)acetic acid] | 6
Cc1cc2c(c(-c3cc(F)c4c(c3C)CCCO4)c1[C@H](OC(C)(C)C)C(=O)O)CCN2C(=O)c1cccc(C(F)(F)F)c1 (atropisomer, axis not shown) [Example 93, (S)-2-(tert-Butoxy)-2-((R)-4-(8-fluoro-5-methylchroman-6-yl)-6-methyl-1-(3-(trifluoromethyl)benzoyl)indolin-5-yl)acetic acid] | 19
Cc1ccc(C(=O)N2CCc3c2cc(C)c([C@H](OC(C)(C)C)C(=O)O)c3-c2cc(F)c3c(c2C)CCCO3)cc1C (atropisomer, axis not shown) [Example 94, (S)-2-(tert-Butoxy)-2-((R)-1-(3,4-dimethylbenzoyl)-4-(8-fluoro-5-methylchroman-6-yl)-6-methylindolin-5-yl)acetic acid] | 4
CNC(=O)c1ccc(C(=O)N2CCc3c2cc(C)c([C@H](OC(C)(C)C)C(=O)O)c3-c2cc(F)c3c(c2C)CCCO3)cc1 (atropisomer, axis not shown) [Example 95, (S)-2-(tert-Butoxy)-2-((R)-4-(8-fluoro-5-methylchroman-6-yl)-6-methyl-1-(4-(methylcarbamoyl)benzoyl)indolin-5-yl)acetic acid] | 142
Cc1cc2c(c(-c3cc(F)c4c(c3C)CCCO4)c1[C@H](OC(C)(C)C)C(=O)O)CCN2C(=O)c1cccc(F)c1C (atropisomer, axis not shown) [Example 96, (S)-2-(tert-Butoxy)-2-((R)-1-(3-fluoro-2-methylbenzoyl)-4-(8-fluoro-5-methylchroman-6-yl)-6-methylindolin-5-yl)acetic acid] | 4
Cc1cc(F)cc(C(=O)N2CCc3c2cc(C)c([C@H](OC(C)(C)C)C(=O)O)c3-c2cc(F)c3c(c2C)CCCO3)c1 (atropisomer, axis not shown) [Example 97, (S)-2-(tert-Butoxy)-2-((R)-1-(3-fluoro-5-methylbenzoyl)-4-(8-fluoro-5-methylchroman-6-yl)-6-methylindolin-5-yl)acetic acid] | 6
Cc1cc2c(c(-c3cc(F)c4c(c3C)CCCO4)c1[C@H](OC(C)(C)C)C(=O)O)CCN2C(=O)c1ccccc1Cl (atropisomer, axis not shown) [Example 98, (S)-2-(tert-Butoxy)-2-((R)-1-(2-chlorobenzoyl)-4-(8-fluoro-5-methylchroman-6-yl)-6-methylindolin-5-yl)acetic acid] | 2
COc1ccc(C)cc1C(=O)N1CCc2c1cc(C)c([C@H](OC(C)(C)C)C(=O)O)c2-c1cc(F)c2c(c1C)CCCO2 (atropisomer, axis not shown) [Example 99, (S)-2-(tert-Butoxy)-2-((R)-4-(8-fluoro-5-methylchroman-6-yl)-1-(2-methoxy-5-methylbenzoyl)-6-methylindolin-5-yl)acetic acid] | 4
Cc1cc2c(c(-c3cc(F)c4c(c3C)CCCO4)c1[C@H](OC(C)(C)C)C(=O)O)CCN2C(=O)c1cccc2c1OCC2 (atropisomer, axis not shown) [Example 100, (S)-2-(tert-Butoxy)-2-((R)-1-(2,3-dihydrobenzofuran-7-carbonyl)-4-(8-fluoro-5-methylchroman-6-yl)-6-methylindolin-5-yl)acetic acid] | 5
COc1ccc(F)cc1C(=O)N1CCc2c1cc(C)c([C@H](OC(C)(C)C)C(=O)O)c2-c1cc(F)c2c(c1C)CCCO2 (atropisomer, axis not shown) [Example 101, (S)-2-(tert-Butoxy)-2-((R)-1-(5-fluoro-2-methoxybenzoyl)-4-(8-fluoro-5-methylchroman-6-yl)-6-methylindolin-5-yl)acetic acid] | 5
COc1ccc(C(=O)N2CCc3c2cc(C)c([C@H](OC(C)(C)C)C(=O)O)c3-c2cc(F)c3c(c2C)CCCO3)cc1C (atropisomer, axis not shown) [Example 102, (S)-2-(tert-Butoxy)-2-((R)-4-(8-fluoro-5-methylchroman-6-yl)-1-(4-methoxy-3-methylbenzoyl)-6-methylindolin-5-yl)acetic acid] | 2
Cc1cc2c(c(-c3cc(F)c4c(c3C)CCCO4)c1[C@H](OC(C)(C)C)C(=O)O)CCN2C(=O)c1cc(Cl)ccn1 (atropisomer, axis not shown) [Example 103, (S)-2-(tert-Butoxy)-2-((R)-1-(4-chloropicolinoyl)-4-(8-fluoro-5-methylchroman-6-yl)-6-methylindolin-5-yl)acetic acid] | 16
CC(=O)Nc1ccc(C(=O)N2CCc3c2cc(C)c([C@H](OC(C)(C)C)C(=O)O)c3-c2cc(F)c3c(c2C)CCCO3)cc1 (atropisomer, axis not shown) [Example 104, (S)-2-((R)-1-(4-Acetamidobenzoyl)-4-(8-fluoro-5-methylchroman-6-yl)-6-methylindolin-5-yl)-2-(tert-butoxy)acetic acid] | 323
COc1ccc(OC)c(C(=O)N2CCc3c2cc(C)c([C@H](OC(C)(C)C)C(=O)O)c3-c2cc(F)c3c(c2C)CCCO3)c1 (atropisomer, axis not shown) [Example 106, (S)-2-(tert-Butoxy)-2-((R)-1-(2,5-dimethoxybenzoyl)-4-(8-fluoro-5-methylchroman-6-yl)-6-methylindolin-5-yl)acetic acid] | 11
COc1ccc(C)c(C(=O)N2CCc3c2cc(C)c([C@H](OC(C)(C)C)C(=O)O)c3-c2cc(F)c3c(c2C)CCCO3)c1 (atropisomer, axis not shown) [Example 107, (S)-2-(tert-Butoxy)-2-((R)-4-(8-fluoro-5-methylchroman-6-yl)-1-(5-methoxy-2-methylbenzoyl)-6-methylindolin-5-yl)acetic acid] | 5
Cc1ccc(C(=O)N2CCc3c2cc(C)c([C@H](OC(C)(C)C)C(=O)O)c3-c2cc(F)c3c(c2C)CCCO3)cc1 (atropisomer, axis not shown) [Example 108, (S)-2-(tert-Butoxy)-2-((R)-4-(8-fluoro-5-methylchroman-6-yl)-6-methyl-1-(4-methylbenzoyl)indolin-5-yl)acetic acid] | 4
Cc1cc2c(c(-c3cc(F)c4c(c3C)CCCO4)c1[C@H](OC(C)(C)C)C(=O)O)CCN2C(=O)c1cc(F)ccc1F (atropisomer, axis not shown) [Example 109, (S)-2-(tert-Butoxy)-2-((R)-1-(2,5-difluorobenzoyl)-4-(8-fluoro-5-methylchroman-6-yl)-6-methylindolin-5-yl)acetic acid] | 11
Cc1cc(C(=O)N2CCc3c2cc(C)c([C@H](OC(C)(C)C)C(=O)O)c3-c2cc(F)c3c(c2C)CCCO3)ccc1Cl (atropisomer, axis not shown) [Example 110, (S)-2-(tert-Butoxy)-2-((R)-1-(4-chloro-3-methylbenzoyl)-4-(8-fluoro-5-methylchroman-6-yl)-6-methylindolin-5-yl)acetic acid] | 4
Cc1cc2c(c(-c3cc(F)c4c(c3C)CCCO4)c1[C@H](OC(C)(C)C)C(=O)O)CCN2C(=O)c1c(F)cccc1F (atropisomer, axis not shown) [Example 111, (S)-2-(tert-Butoxy)-2-((R)-1-(2,6-difluorobenzoyl)-4-(8-fluoro-5-methylchroman-6-yl)-6-methylindolin-5-yl)acetic acid] | 43
Cc1cc2c(c(-c3cc(F)c4c(c3C)CCCO4)c1[C@H](OC(C)(C)C)C(=O)O)CCN2C(=O)c1ccc(C(=O)N2CCCCC2)cc1 (atropisomer, axis not shown) [Example 112, (S)-2-(tert-Butoxy)-2-((R)-4-(8-fluoro-5-methylchroman-6-yl)-6-methyl-1-(4-(piperidine-1-carbonyl)benzoyl)indolin-5-yl)acetic acid] | 295
COc1c(C(=O)N2CCc3c2cc(C)c([C@H](OC(C)(C)C)C(=O)O)c3-c2cc(F)c3c(c2C)CCCO3)ccc(F)c1F (atropisomer, axis not shown) [Example 113, (S)-2-(tert-Butoxy)-2-((R)-1-(3,4-difluoro-2-methoxybenzoyl)-4-(8-fluoro-5-methylchroman-6-yl)-6-methylindolin-5-yl)acetic acid] | 2
Cc1cc2c(c(-c3cc(F)c4c(c3C)CCCO4)c1[C@H](OC(C)(C)C)C(=O)O)CCN2C(=O)c1cccc2c1OCO2 (atropisomer, axis not shown) [Example 114, (S)-2-((R)-1-(Benzo[d][1,3]dioxole-4-carbonyl)-4-(8-fluoro-5-methylchroman-6-yl)-6-methylindolin-5-yl)-2-(tert-butoxy)acetic acid] | 5
Cc1ccc(C(=O)N2CCc3c2cc(C)c([C@H](OC(C)(C)C)C(=O)O)c3-c2cc(F)c3c(c2C)CCCO3)cc1Cl (atropisomer, axis not shown) [Example 115, (S)-2-(tert-Butoxy)-2-((R)-1-(3-chloro-4-methylbenzoyl)-4-(8-fluoro-5-methylchroman-6-yl)-6-methylindolin-5-yl)acetic acid] | 5
Cc1ccc(C(=O)N2CCc3c2cc(C)c([C@H](OC(C)(C)C)C(=O)O)c3-c2cc(F)c3c(c2C)CCCO3)cn1 (atropisomer, axis not shown) [Example 116, (S)-2-(tert-Butoxy)-2-((R)-4-(8-fluoro-5-methylchroman-6-yl)-6-methyl-1-(6-methylnicotinoyl)indolin-5-yl)acetic acid] | 11
